# Measured values from ChEMBL document CHEMBL1139084, “N-Alkyl-N-alkyloxycarbonylaminomethyl (NANAOCAM) prodrugs of carboxylic acid containing drugs” (Bioorg Med Chem Lett, 2007).
# Experiments:
# [1] = Stability in aqueous buffer assessed as hydrolysis half life; type: physicochemical
# [2] = Dissociation constant, pKa of the compound; type: physicochemical
# [3] = Solubility in isopropyl myristate; type: physicochemical
# [4] = Partition coefficient, log K between isopropyl myristate and pH 4.0 buffer; type: ADME; conditions: isopropyl myristate/pH 4.0 buffer
# Zone of skin = assay: Drug level in mouse skin; type: ADME, tissue-based; conditions: in vitro
# [5] = Permeability across hairless mouse skin from isopropyl myristate; type: ADME, tissue-based, Zone of skin; conditions: read-out: permeability (converted)
half-life [1] [min],pKa [2],solubility [3] [mM],log K [4],Drug uptake (Zone of skin) [µmol],Papp [5] [×10⁻⁶ cm/s],Structure (SMILES)
40,6,–,–,–,–,CCn1cc(C(=O)OCN(C)C(=O)OC)c(=O)c2ccc(C)nc21
49.8,4.2,–,–,–,–,COC(=O)N(COC(=O)[C@@H](C)c1ccc2cc(OC)ccc2c1)c1ccc(OC)cc1
4.11,4.41,–,–,–,–,COC(=O)N(C)COC(=O)C(C)c1ccc(CC(C)C)cc1 (centres undefined)
120,4.2,–,–,–,–,COC(=O)N(COC(=O)[C@@H](C)c1ccc2cc(OC)ccc2c1)c1ccccc1
3.65,4.5,–,–,–,–,COC(=O)N(C)COC(=O)Cc1c(C)n(C(=O)c2ccc(Cl)cc2)c2ccc(OC)cc12
156,4.2,–,–,–,–,CCOC(=O)c1ccc(N(COC(=O)[C@@H](C)c2ccc3cc(OC)ccc3c2)C(=O)OC)cc1
2,4.2,5.16,1.67,4.21,5.28,COC(=O)N(C)COC(=O)[C@@H](C)c1ccc2cc(OC)ccc2c1
–,–,–,–,2.71,–,COc1ccc2cc([C@H](C)C(=O)O)ccc2c1 [NAPROXEN]
